Laboratory results published in ChEMBL document CHEMBL6121025, “Novel Compounds as CDK2 Inhibitors for Treating Cancer” (ACS Med Chem Lett, 2025).

Target: Cyclin-dependent kinase 2/cyclin E1 (Homo sapiens) (UniProt P24864+P24941)
Test: Inhibition of C-terminal Avi-tagged CDK2/Cyclin E1 (unknown origin) extracted from Escherichia coli assessed as reduction in RB1 phosphorylation at S780 residue incubated for 60 mins in the presence of ATP by TR-FRET assay
Assay type: protein-complex assay

Row | SMILES | INH [µM]
1 | O=C1N([C@@H]2CCC[C@@H](O)C2)c2nc(Nc3c[nH]nc3C(F)F)ncc2C12CC2 | 0.007
2 | O=C1N([C@@H]2CCC[C@@H](O)C2)c2nc(Nc3c[nH]nc3-c3cnn4cccnc34)ncc2C12CC2 | 0.006
3 | O=C1N([C@@H]2CCC[C@@H](O)C2)c2nc(Nc3c[nH]nc3OCC(F)F)ncc2C12CC2 | 0.005

More lines, now with the values ahead:

Row | INH [µM] | SMILES
4 | 0.006 | O=C1N([C@@H]2CCC[C@@H](O)C2)c2nc(Nc3c[nH]nc3O[C@H]3CC3(F)F)ncc2C12CC2
5 | 0.006 | O=C1N([C@@H]2CCC[C@@H](O)C2)c2nc(Nc3c[nH]nc3O[C@@H]3CC3(F)F)ncc2C12CC2
6 | 0.006 | O=C1N([C@@H]2CCC[C@@H](O)C2)c2nc(Nc3c[nH]nc3[C@H]3CC3(F)F)ncc2C12CC2
